Measured values: patent US11844868B2, “Dry powder composition for peroral administration” (VICORE PHARMA AB, priority 2020, dated 2023)

Tests used:
Format in all cases: physicochemical
[1] = Solubility of C21 sodium salt in aqueous vehicles
Protocol: In this experiment, C21 sodium salt (Syntagon AB) was added to the vehicle, small amounts at a time. About 20-30 mg of the sodium salt was easily dissolved in all the vehicles tested. Salt was continuously added to the same sample in an attempt to obtain a saturated solution. In this way, higher amounts, such as 40-60 mg/mL could be dissolved. The solubility is probably even higher than this in the vehicles tested, but this was not established in view of the limited amount of drug compound available.

[2] = Stability of aqueous solutions of C21 (free C21 1 mg/mL in 0.9% NaCl pH 9.4; sodium salt likewise) under four storage conditions, HPLC; settings: for light-induced degradation: aqueous solution, RT/light; for chemical stability: solution stored in dark at 5° C., RT and 40° C. for four weeks
Protocol: The stability of free C21 in 0.9% NaCl pH 9.4 was investigated.
Solutions of 1 mg/mL of C21 were studied for four weeks under four different storage conditions. The solution was filtered through a 0.22 sterile syringe filter to minimize bacterial growth during the stability test. The samples were analysed by HPLC for purity.
The results are summarised in Table 3 below, in which the amount of C21 is given as a percentage of the initial amount of drug. Solution pHs were also measured and are shown within parenthesis in Table 3.
The stability of the sodium salt of C21 was also investigated under the same storage conditions.
At the time for analysis of the one week samples, it was noted that the heating cabinet for storage of samples at 40° C. was broken. In view of this, these samples were thereafter kept at room temperature for three days.

[3] = Excipient compatibility study, 60° C. for 12 days (related impurities)
Protocol: The excipients used in the capsules in Comparative Example 3 above were evaluated along with some additional ones (see Table 8 below).
C21 (sodium salt) used in these experiments was ground and passed through a 300 μm sieve. Mixtures of each excipient and C21 were prepared by thorough mixing in the amounts specified in Table 8. The ratio of C21 to various fillers (D-mannitol, MCC, lactose monohydrate and HPMC) was adapted to give a volume equivalent to the larger part of a capsule.
Three capsules of each type were filled with C21. All preparations were stored under accelerated stability conditions at 60° C. for 12 days prior to analysis.
In addition to the disintegrants (sodium starch glycolate and croscarmellose sodium) mentioned above, crospovidone of two different types (Kollidon® CL (Type A), and Kollidon® CL-SF (Type B) (both BASF) were tested.
Mixtures of 130 mg crospovidone and 200 mg C21 were prepared and were thoroughly mixed using a Turbula mixer for 10 minutes. All of these preparations were analysed at time zero and after storage at accelerated stability conditions at 60° C. for 12 days.

[4] = Accelerated stability of C21/mannitol powder mixtures, 60° C. for 12 days
Protocol: C21 sodium salt was used together with 7 different types of mannitol from two different manufacturers.
C21 and mannitol were added to glass flasks and were mixed together using a Turbula mixer. At a mixing time of 30 minutes, each flask was sampled for homogeneity and related impurities were analysed.
An aliquot of each powder mixture was also subjected to 60° C. for 12 days in a stability analysis. The nominal content of C21 was 7.4% w/w (calculated as free C21) for all mannitol mixtures except one, where an additional strength of 14.8% w/w was also tested.

CCCCOC(=O)[N-]S(=O)(=O)c1sc(CC(C)C)cc1-c1ccc(Cn2ccnc2)cc1.[Na+] [C21 sodium salt]
amount that could be dissolved ([1]; salt continuously added, vehicles tested, saturation not established): 40 to 60 mg/mL
solubility compared with free C21 ([1]; similar experiment): considerably higher than free C21
Concentration (solubility) ([1]; vehicle 0.9% NaCl, pH 9.3): >40 mg/mL
Concentration (solubility) ([1]; vehicle H2O, pH 9.8): >65 mg/mL
Concentration (solubility) ([1]; vehicle PBS pH 7.4, measured pH 9.4): >40 mg/mL
Amount of Free C21, % of initial ([2]; 5° C., dark, 1 week): 108 % of initial
Solution pH (within parenthesis) ([2]; 5° C., dark, 1 week): 8.5
Amount of Free C21, % of initial ([2]; 5° C., dark, 2 weeks): 113 % of initial
Solution pH (within parenthesis) ([2]; 5° C., dark, 2 weeks): 8.4
Amount of Free C21, % of initial ([2]; 5° C., dark, 3 weeks): 113 % of initial
Solution pH (within parenthesis) ([2]; 5° C., dark, 3 weeks): 8.5
Amount of Free C21, % of initial ([2]; 5° C., dark, 4 weeks): 112 % of initial
Solution pH (within parenthesis) ([2]; 5° C., dark, 4 weeks): 8.5
Amount of Free C21, % of initial ([2]; 5° C., dark, Initial): 100 % of initial
Solution pH (within parenthesis) ([2]; 5° C., dark, Initial): 8.3
Amount of Free C21, % of initial ([2]; 40° C., dark, 1 week): 111 % of initial
Solution pH (within parenthesis) ([2]; 40° C., dark, 1 week): 8.6
Amount of Free C21, % of initial ([2]; 40° C., dark, 2 weeks): 111 % of initial
Solution pH (within parenthesis) ([2]; 40° C., dark, 2 weeks): 8.5
Amount of Free C21, % of initial ([2]; 40° C., dark, 3 weeks): 109 % of initial
Solution pH (within parenthesis) ([2]; 40° C., dark, 3 weeks): 8.7
Amount of Free C21, % of initial ([2]; 40° C., dark, 4 weeks): 118 % of initial
Solution pH (within parenthesis) ([2]; 40° C., dark, 4 weeks): 8.1
Amount of Free C21, % of initial ([2]; 40° C., dark, Initial): 100 % of initial
Solution pH (within parenthesis) ([2]; 40° C., dark, Initial): 8.3
Amount of Free C21, % of initial ([2]; RT, dark, 1 week): 115 % of initial
Solution pH (within parenthesis) ([2]; RT, dark, 1 week): 8.6
Amount of Free C21, % of initial ([2]; RT, dark, 2 weeks): 110 % of initial
Solution pH (within parenthesis) ([2]; RT, dark, 2 weeks): 8.8
Amount of Free C21, % of initial ([2]; RT, dark, 3 weeks): 111 % of initial
Solution pH (within parenthesis) ([2]; RT, dark, 3 weeks): 8.8
Amount of Free C21, % of initial ([2]; RT, dark, 4 weeks): 112 % of initial
Solution pH (within parenthesis) ([2]; RT, dark, 4 weeks): 8.2
Amount of Free C21, % of initial ([2]; RT, dark, Initial): 100 % of initial
Solution pH (within parenthesis) ([2]; RT, dark, Initial): 8.3
Amount of Free C21, % of initial ([2]; RT, light, 1 week): 108 % of initial
Solution pH (within parenthesis) ([2]; RT, light, 1 week): (8.4)
Amount of Free C21, % of initial ([2]; RT, light, 2 weeks): 96 % of initial
Solution pH (within parenthesis) ([2]; RT, light, 2 weeks): (8.0)
Amount of Free C21, % of initial ([2]; RT, light, 3 weeks): 72 % of initial
Solution pH (within parenthesis) ([2]; RT, light, 3 weeks): (8.3)
Amount of Free C21, % of initial ([2]; RT, light, 4 weeks): 9 % of initial
Solution pH (within parenthesis) ([2]; RT, light, 4 weeks): (7.3)
Amount of Free C21, % of initial ([2]; RT, light, Initial): 100 % of initial
Solution pH (within parenthesis) ([2]; RT, light, Initial): (8.3)
light-induced degradation [2]: light-induced degradation occurs
chemical stability [2]: chemically stable
Degradation: Sum of impurities (≥0.05%) [3]: 0.26%
Individual Impurity 1 [3]: 0.26 area %
degradation of C21 [3]: No degradation
Impurities ≥0.05% Formed: 1 [4]: 0.26 area %

CCCCOC(=O)NS(=O)(=O)c1sc(CC(C)C)cc1-c1ccc(Cn2ccnc2)cc1 [free C21, N-butyloxycarbonyl-3-(4-imidazol-1-ylmethylphenyl)-5-iso-butylthiophene-2-sulfonamide]
Amount of Free C21, % of initial ([2]; 5° C., dark, 1 week): 101 % of initial
Solution pH (within parenthesis) ([2]; 5° C., dark, 1 week): 9.2
Amount of Free C21, % of initial ([2]; 5° C., dark, 2 weeks): 107 % of initial
Solution pH (within parenthesis) ([2]; 5° C., dark, 2 weeks): 9.2
Amount of Free C21, % of initial ([2]; 5° C., dark, 3 weeks): 108 % of initial
Solution pH (within parenthesis) ([2]; 5° C., dark, 3 weeks): 9.1
Amount of Free C21, % of initial ([2]; 5° C., dark, 4 weeks): 108 % of initial
Solution pH (within parenthesis) ([2]; 5° C., dark, 4 weeks): 9.2
Amount of Free C21, % of initial ([2]; 5° C., dark, Initial): 100 % of initial
Solution pH (within parenthesis) ([2]; 5° C., dark, Initial): 9.4
Amount of Free C21, % of initial ([2]; 40° C., dark, 1 week): 101 % of initial
Solution pH (within parenthesis) ([2]; 40° C., dark, 1 week): 9.0
Amount of Free C21, % of initial ([2]; 40° C., dark, 2 weeks): 111 % of initial
Solution pH (within parenthesis) ([2]; 40° C., dark, 2 weeks): 8.6
Amount of Free C21, % of initial ([2]; 40° C., dark, 3 weeks): 106 % of initial
Solution pH (within parenthesis) ([2]; 40° C., dark, 3 weeks): 8.7
Amount of Free C21, % of initial ([2]; 40° C., dark, 4 weeks): 107 % of initial
Solution pH (within parenthesis) ([2]; 40° C., dark, 4 weeks): 8.7
Amount of Free C21, % of initial ([2]; 40° C., dark, Initial): 100 % of initial
Solution pH (within parenthesis) ([2]; 40° C., dark, Initial): 9.4
Amount of Free C21, % of initial ([2]; RT, dark, 1 week): 97 % of initial
Solution pH (within parenthesis) ([2]; RT, dark, 1 week): (9.2)
Amount of Free C21, % of initial ([2]; RT, dark, 2 weeks): 109 % of initial
Solution pH (within parenthesis) ([2]; RT, dark, 2 weeks): (8.9)
Amount of Free C21, % of initial ([2]; RT, dark, 3 weeks): 105 % of initial
Solution pH (within parenthesis) ([2]; RT, dark, 3 weeks): (9.0)
Amount of Free C21, % of initial ([2]; RT, dark, 4 weeks): 106 % of initial
Solution pH (within parenthesis) ([2]; RT, dark, 4 weeks): (8.9)
Amount of Free C21, % of initial ([2]; RT, dark, Initial): 100 % of initial
Solution pH (within parenthesis) ([2]; RT, dark, Initial): (9.4)
Amount of Free C21, % of initial ([2]; RT, light, 1 week): 96 % of initial
Solution pH (within parenthesis) ([2]; RT, light, 1 week): (9.0)
Amount of Free C21, % of initial ([2]; RT, light, 2 weeks): 44 % of initial
Solution pH (within parenthesis) ([2]; RT, light, 2 weeks): (8.0)
Amount of Free C21, % of initial ([2]; RT, light, 3 weeks): 96 % of initial
Solution pH (within parenthesis) ([2]; RT, light, 3 weeks): (8.5)
Amount of Free C21, % of initial ([2]; RT, light, 4 weeks): 13 % of initial
Solution pH (within parenthesis) ([2]; RT, light, 4 weeks): (7.7)
Amount of Free C21, % of initial ([2]; RT, light, Initial): 100 % of initial
Solution pH (within parenthesis) ([2]; RT, light, Initial): (9.4)
light-induced degradation [2]: light-induced degradation occurs
total impurity peak area ([2]; free C21 solution, samples stored at 5° C., RT/dark and 40° C.): around 2.5 area % of C21 peak area
chemical stability [2]: chemically stable
